Legend:
Type in all cases: binding, BALB/c mice
H6 1.5 = test: ELISA inhibition by singly modified Cs-derivatives, McAb H6 1.5; details: group III; D-Lys^8 -Cs-BSA coating
Procedure: (§1) A second ELISA Procedure used conjugates of D-Lys^8 -Cs-BSA and Thr^2 -Cs-BSA for coating (Queeniaux et al., 1987b). An indirect detection system consisting of rabbit anti-mouse Ig followed by alkaline phosphates-conjugated goat anti-rabbit IgG was performed as previously described (Queenlaux et al., 1987b).
(§2) The binding of the 22 McAbs to these two Cs-BSA conjugates was also found to correlate well with their fine specificity patterns, as characterized with a set of 28-36 Cs derivatives. Typical ELISA curves showing McAb binding either to D-Lys^8 -Cs-BSA (panel A) or to Thr^2 -Ca-BSA (panel B) and inhibited by Cs or Cs derivatives are shown in FIGS. 8A-8B, D-Lys^8 -Cs-BSA was subsequently used for coating in the inhibition experiments, except for those McAbs binding selectively to Thr^2 -Cs-BSA (see Table 4 and FIGS. 7A-7C). An example of the binding of 26 Cs derivatives by McAbs belonging to each of the five specificity groups mentioned above is reported in Table 5. The results are expressed as the difference of IC50 (in log10) between the Cs derivatives and Cs. All Cs-derivatives used in this study were selected for having a conserved peptide ring conformation compared with CsA (as determined in NMR or X-ray diffraction).

B11 1.4 = test: ELISA inhibition by singly modified Cs-derivatives, McAb B11 1.4; details: group IV; D-Lys^8 -Cs-BSA coating
Procedure: as §1, §2

G7 1.1 = test: ELISA inhibition by singly modified Cs-derivatives, McAb G7 1.1; details: group I; McAb binds selectively to Thr^2 -Cs-BSA coating
Procedure: as §1, §2

H4 1.3 = test: ELISA inhibition by singly modified Cs-derivatives, McAb H4 1.3; details: group II; D-Lys^8 -Cs-BSA coating
Procedure: as §1, §2

C4 2.2 = test: ELISA inhibition by singly modified Cs-derivatives, McAb C4 2.2; details: group V; McAb binds selectively to Thr^2 -Cs-BSA coating
Procedure: as §1, §2

SMILES	log10 difference in the concentrations of Cs-derivatives and unmodified Cs required to achieve 50% inhibition in ELISA, McAb H6 1.5 (H6 1.5) [log10]	log10 difference in the concentrations of Cs-derivatives and unmodified Cs required to achieve 50% inhibition in ELISA, McAb B11 1.4 (B11 1.4) [log10]	log10 difference in the concentrations of Cs-derivatives and unmodified Cs required to achieve 50% inhibition in ELISA, McAb G7 1.1 (G7 1.1) [log10]	log10 difference in the concentrations of Cs-derivatives and unmodified Cs required to achieve 50% inhibition in ELISA, McAb H4 1.3 (H4 1.3) [log10]	log10 difference in the concentrations of Cs-derivatives and unmodified Cs required to achieve 50% inhibition in ELISA, McAb C4 2.2 (C4 2.2) [log10]
C/C=C/C[C@@H](C)C[C@H]1C(=O)N[C@@H](CC)C(=O)N(C)CC(=O)N(C)[C@@H](CC(C)C)C(=O)N[C@@H](C(C)C)C(=O)N(C)[C@@H](CC(C)C)C(=O)N[C@@H](C)C(=O)N[C@H](C)C(=O)N(C)[C@@H](CC(C)C)C(=O)N(C)[C@@H](CC(C)C)C(=O)N(C)[C@@H](C(C)C)C(=O)N1C [MeBint^1 3'desoxy]	0.0	0.4	0.6	1.2	< 0.0
C/C=C/C[C@@H](C)[C@@H](O)[C@H]1C(=O)N[C@@H](CO)C(=O)N(C)CC(=O)N(C)[C@@H](CC(C)C)C(=O)N[C@@H](C(C)C)C(=O)N(C)[C@@H](CC(C)C)C(=O)N[C@@H](C)C(=O)N[C@H](C)C(=O)N(C)[C@@H](CC(C)C)C(=O)N(C)[C@@H](CC(C)C)C(=O)N(C)[C@@H](C(C)C)C(=O)N1C [Abu^2 Ser]	0.6	0.0	< 0.0	0.9	0.2
C/C=C/C[C@@H](C)[C@@H](O)[C@H]1C(=O)N[C@@H](CC)C(=O)N(C)CC(=O)N(C)[C@@H](CC(C)C)C(=O)N[C@@H](C(C)C)C(=O)N(C)[C@@H](CC(C)C)C(=O)N[C@@H](C)C(=O)N[C@H](CO)C(=O)N(C)[C@@H](CC(C)C)C(=O)N(C)[C@@H](CC(C)C)C(=O)N(C)[C@@H](C(C)C)C(=O)N1C [D-Ala^8 D-Ser]	< 0.0	0.1	1.3	0.0	0.3
C/C=C/C[C@@H](C)[C@@H](O)[C@H]1C(=O)N[C@@H](CC)C(=O)N(C)[C@H](C)C(=O)N(C)[C@@H](CC(C)C)C(=O)N[C@@H](C(C)C)C(=O)N(C)[C@@H](CC(C)C)C(=O)N[C@@H](C)C(=O)N[C@H](C)C(=O)N(C)[C@@H](CC(C)C)C(=O)N(C)[C@@H](CC(C)C)C(=O)N(C)[C@@H](C(C)C)C(=O)N1C [Sar^3 D-MeAla]	1.4	< 0.0	1.2	1.3	1.2
C/C=C/C[C@@H](C)[C@@H](O)[C@H]1C(=O)N[C@@H](CC)C(=O)N(C)CC(=O)N(C)[C@@H](CC(C)C)C(=O)N(C)[C@@H](CC(C)C)C(=O)N(C)[C@@H](CC(C)C)C(=O)N[C@@H](C)C(=O)N[C@H](C)C(=O)N(C)[C@@H](CC(C)C)C(=O)N(C)[C@@H](CC(C)C)C(=O)N(C)[C@@H](C(C)C)C(=O)N1C [Val^5 MeLeu]	0.3	0.0	1.0	1.2	< 0.0
C/C=C/C[C@@H](C)[C@@H](O)[C@H]1C(=O)N[C@@H](CC)C(=O)N(C)CC(=O)N(C)[C@@H](CC(C)C)C(=O)N[C@@H](C(C)C)C(=O)N(C)[C@@H](CC(C)C)C(=O)N[C@@H](C)C(=O)N[C@H](C)C(=O)N(C)[C@@H](CC(C)C)C(=O)N(C)[C@@H](Cc2ccccc2)C(=O)N(C)[C@@H](C(C)C)C(=O)N1C [MeAla^10 MePhe]	0.2	1.6	< 0.0	0.5	1.3
C/C=C/C[C@@H](C)[C@@H](O)[C@H]1C(=O)N[C@@H](CC)C(=O)N(C)CC(=O)N(C)[C@@H](C)C(=O)N[C@@H](C(C)C)C(=O)N(C)[C@@H](CC(C)C)C(=O)N[C@@H](C)C(=O)N[C@H](C)C(=O)N(C)[C@@H](CC(C)C)C(=O)N(C)[C@@H](CC(C)C)C(=O)N(C)[C@@H](C(C)C)C(=O)N1C [MeLeu^4 MeAla]	1.2	0.3	< 0.0	1.8	0.1
C/C=C/C[C@@H](C)[C@@H](O)[C@H]1C(=O)N[C@@H](CC)C(=O)N(C)CC(=O)N(C)[C@@H](CC(C)C)C(=O)N[C@@H](C(C)C)C(=O)N(C)[C@@H](CC(C)C)C(=O)N[C@@H](CC)C(=O)N[C@H](C)C(=O)N(C)[C@@H](CC(C)C)C(=O)N(C)[C@@H](CC(C)C)C(=O)N(C)[C@@H](C(C)C)C(=O)N1C [Ala^7 Abu]	0.0	0.0	< 0.0	0.0	< 0.0
C/C=C/C[C@@H](C)[C@@H](O)[C@H]1C(=O)N[C@@H](CC)C(=O)N(C)CC(=O)N(C)[C@@H](CC(C)C)C(=O)N[C@@H](C(C)C)C(=O)N(C)[C@@H](CC(C)C)C(=O)N[C@@H](C)C(=O)N[C@H]([C@H](C)O)C(=O)N(C)[C@@H](CC(C)C)C(=O)N(C)[C@@H](CC(C)C)C(=O)N(C)[C@@H](C(C)C)C(=O)N1C [D-Ala^8 D-Thr]	< 0.0	0.4	> 2.0	0.0	1.2
C/C=C/C[C@@H](C)[C@@H](O)[C@H]1C(=O)N[C@@H](CCC)C(=O)N(C)CC(=O)N(C)[C@@H](CC(C)C)C(=O)N[C@@H](CCC)C(=O)N(C)[C@@H](CC(C)C)C(=O)N[C@@H](C)C(=O)N[C@H](C)C(=O)N(C)[C@@H](CC(C)C)C(=O)N(C)[C@@H](CC(C)C)C(=O)N(C)[C@@H](C(C)C)C(=O)N1C [Val^5 NVa^2, Nva^5]	0.2	0.2	0.5	1.2	0.1

From US6177253A, “Screening methods for the identification of anti-HIV compounds employing a cyclosporine-specific monoclonal antibody that cross-reacts with HIV-1 p24” (priority 1998, dated 2001)
